Values of other authors as cited in paper PMC11843658 (Journal of Enzyme Inhibition and Medicinal Chemistry, 2025).

Molecular target: LSD1 (Homo sapiens, UniProt O60341)
Parameters: purchased Cayman Chemical (Ann Arbor, MI)
Conditions: cited from earlier work

## CC/C(=C\c1ccccc1)[C@@H]1C[C@H]1NC1CC2(C1)CN(CCO)C2 [Compound 5]
  mode of LSD1 inhibition: covalently inhibits LSD1
